Data from patent US20110098296A1, “Thiazole And Oxazole Kinase Inhibitors” (priority 2007, published 2011).
Structures can show the parent of a compound that is named as a salt.

Legend:
HT-29 tumor cells = experiment: Method C: Cell Growth Inhibition Assay (CellTiter-Glo), HT-29; format: cell-based; conditions: Homo sapiens, HT-29, 72 h, 3 days, 4-parameter fit
Procedure: (§1) Human breast tumor cells (BT474) were cultured in RPMI (Mediatech 50-011-PB), containing 10% FBS (JRH Biosciences 12176) and 1% penicillin-streptomycin (Invitrogen 15140). Human head and neck tumor cells (HN5) were cultured in high glucose DMEM (Mediatech 50-013-PB) containing 10% FBS and 1% penicillin-streptomycin. Human colon tumor cells (Colo205) were cultured in RPMI (Mediatech 50-020-PB) containing 10% FBS and 1% penicillin-streptomycin. Human melanoma cancer cells (SK-MEL-28) were cultured in EMEM with nonessential amino acids (Mediatech 50-011-PB) containing 10% FBS, 1% sodium pyruvate (JT Baker 3354-04), and 1% penicillin-streptomycin. Human melanoma cancer cells (A375P F11s) were cultured in RPMI (Mediatech 50-020-PB) containing 10% FBS, 1% sodium pyruvate, and 1% penicillin-streptomycin. Human colon cancer cells (HT-29) were cultured in high glucose DMEM (Mediatech 50-013-PB) containing 10% FBS and 1% penicillin-streptomycin. Human melanoma cancer cells (SK-MEL-3) were cultured in McCoy's 5A (50-025-PB) containing 15% FBS, and 1% penicillin-streptomycin. All cell lines were maintained at 37° C. in a humidified 5% CO2, 95% air incubator. Cells were harvested using trypsin/EDTA (Invitrogen 25200), counted using an haemocytometer, and plated. For 96-well assays (using white full-area NUNC plates cat. #136102), cells were plated in 105 μL at the following densities (cells/well): HN5, 500; Colo205, 500; SK-MEL-28, 500; A375P-F11s, 500; HT-29, 500; SK-MEL-3, 500; and BT474, 3000. For 384-well assays (white full-area NUNC plates, cat. #781080), cells were plated in 48 μL at the following densities (cells/well): HN5, 500; Colo205, 500; SK-MEL-28, 500; A375P-F11s, 500; HT29, 500; SK-MEL-3, 500; and BT474, 2000.
(§2) The next day, compounds were diluted as follow: For 96-well assays, 13.5 μL of compound in DMSO were diluted using nine (9) serial 1:3 dilutions of 4.5 μL in 9 μL of DMSO. Medium (270 μl/well of RPMI with 10% FBS and 1% penicillin-streptomycin) was added to the plates. Aliquots (7 μl) were added to cells in the final assay giving a final DMSO concentration of 0.2%. For 384-well assays, 15 μL of compound in DMSO were diluted using nine (9) serial 1:3 dilutions of 5 μL in 10 μL of DMSO, followed by a further dilution of 5 μL of compound with 95 μL of medium, of which 2 μL were added to cells in the final assay giving a final DMSO concentration of 0.2%. Cells were incubated at 37° C., 5% CO2 for 3 days.
(§3) Total ATP was measured (as a surrogate estimate of cell number) using CellTiter-Glo® reagent (Promega G7571). Briefly, plates were removed from the incubator and allowed to equilibrate to room temperature for 30 minutes. CellTiter-Glo® (25 μL or 55 μL for 384-well or 96-well assays, respectively) reagent was added to each well and plates were shaken on an orbital plate shaker for 2 mins. Plates were incubated without shaking for a further 30 mins and read on an LJL Analyst GT reader in luminometer mode with an integration time of 0.5 seconds per well. Percent inhibition of cell growth was calculated relative to DMSO vehicle-treated control wells. Concentration of compound required to give 50% inhibition of vehicle-treated control cell growth (IC50) was interpolated using a 4-parameter fit for determining IC50 using the following equation: Y=A+((B−A)/(1+((C/X)̂D))) where X=IC50.

ErbB2 = target: T1, ErbB2 (Homo sapiens, UniProt P04626); experiment: ErbB-2 substrate phosphorylation assay (HTRF); format: biochemical; conditions: Method (A): Enzyme Mix incubated with compound at 20° C. for 1 hr, reaction started by adding Substrate Mix
T1 construct: made in house; host or cells: baculovirus expression system
How it was run: (§4)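 Baculovirus-expressed kinase (0.8 nM EGFR or 10 nM ErbB2 in enzyme mix) with Peptide C 0.8 μM and ATP 20 μM (substrate-mix levels), MOPS pH 7.5, MnCl2; 90 min, 20 °C, HTRF anti-phosphotyrosine. Method A adds 1 h enzyme–compound preincubation; B none. pIC50, final compound 0.00027–47.6 μM.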

HN5 tumor cells = experiment: Method C: Cell Growth Inhibition Assay (CellTiter-Glo), HN5; format: cell-based; conditions: Homo sapiens, 72 h, 3 days, 4-parameter fit
Procedure: as §1, §2, §3

Colo205 tumor cells = experiment: Method C: Cell Growth Inhibition Assay (CellTiter-Glo), Colo205; format: cell-based; conditions: Homo sapiens, COLO 205, 72 h, 3 days, 4-parameter fit
How it was run: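 Luminescent ATP signal (CellTiter-Glo, after 30 min room-temperature equilibration) served as a surrogate for cell number after a 3-day compound exposure at 37° C. Cells were plated at 500/well and treated with serially diluted compound at 0.2% DMSO. IC50 values are 4-parameter fits against DMSO-treated wells.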

EGFR = target: T2, EGFR (Homo sapiens, UniProt P00533); experiment: EGFR substrate phosphorylation assay (HTRF); format: biochemical; conditions: Method (A): Enzyme Mix incubated with compound at 20° C. for 1 hr, reaction started by adding Substrate Mix
T2 construct: made in house; host or cells: baculovirus expression system
How it was run: as §4

SK-MEL-3 tumor cells = experiment: Method C: Cell Growth Inhibition Assay (CellTiter-Glo), SK-MEL-3; format: cell-based; conditions: Homo sapiens, SK-MEL3, 72 h, 3 days, 4-parameter fit
Procedure: as §1, §2, §3

SK-MEL-28 tumor cells = experiment: Method C: Cell Growth Inhibition Assay (CellTiter-Glo), SK-MEL-28; format: cell-based; conditions: Homo sapiens, SK-MEL-28, 72 h, 3 days, 4-parameter fit
How it was run: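 Plating at 500 cells/well is followed the next day by addition of compound as a 1:3 serial dilution series. After 3 days' incubation, CellTiter-Glo luminescence is read and IC50 is calculated versus DMSO wells.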

BT474 tumor cells = experiment: Method C: Cell Growth Inhibition Assay (CellTiter-Glo), BT474; format: cell-based; conditions: Homo sapiens, BT-474, 72 h, 3 days, 4-parameter fit
A375P F11s tumor cells = experiment: Method C: Cell Growth Inhibition Assay (CellTiter-Glo), A375P F11s; format: cell-based; conditions: Homo sapiens, 72 h, 3 days, 4-parameter fit
Procedure: as §1, §2, §3

T2 sequence (P00533 25-1210): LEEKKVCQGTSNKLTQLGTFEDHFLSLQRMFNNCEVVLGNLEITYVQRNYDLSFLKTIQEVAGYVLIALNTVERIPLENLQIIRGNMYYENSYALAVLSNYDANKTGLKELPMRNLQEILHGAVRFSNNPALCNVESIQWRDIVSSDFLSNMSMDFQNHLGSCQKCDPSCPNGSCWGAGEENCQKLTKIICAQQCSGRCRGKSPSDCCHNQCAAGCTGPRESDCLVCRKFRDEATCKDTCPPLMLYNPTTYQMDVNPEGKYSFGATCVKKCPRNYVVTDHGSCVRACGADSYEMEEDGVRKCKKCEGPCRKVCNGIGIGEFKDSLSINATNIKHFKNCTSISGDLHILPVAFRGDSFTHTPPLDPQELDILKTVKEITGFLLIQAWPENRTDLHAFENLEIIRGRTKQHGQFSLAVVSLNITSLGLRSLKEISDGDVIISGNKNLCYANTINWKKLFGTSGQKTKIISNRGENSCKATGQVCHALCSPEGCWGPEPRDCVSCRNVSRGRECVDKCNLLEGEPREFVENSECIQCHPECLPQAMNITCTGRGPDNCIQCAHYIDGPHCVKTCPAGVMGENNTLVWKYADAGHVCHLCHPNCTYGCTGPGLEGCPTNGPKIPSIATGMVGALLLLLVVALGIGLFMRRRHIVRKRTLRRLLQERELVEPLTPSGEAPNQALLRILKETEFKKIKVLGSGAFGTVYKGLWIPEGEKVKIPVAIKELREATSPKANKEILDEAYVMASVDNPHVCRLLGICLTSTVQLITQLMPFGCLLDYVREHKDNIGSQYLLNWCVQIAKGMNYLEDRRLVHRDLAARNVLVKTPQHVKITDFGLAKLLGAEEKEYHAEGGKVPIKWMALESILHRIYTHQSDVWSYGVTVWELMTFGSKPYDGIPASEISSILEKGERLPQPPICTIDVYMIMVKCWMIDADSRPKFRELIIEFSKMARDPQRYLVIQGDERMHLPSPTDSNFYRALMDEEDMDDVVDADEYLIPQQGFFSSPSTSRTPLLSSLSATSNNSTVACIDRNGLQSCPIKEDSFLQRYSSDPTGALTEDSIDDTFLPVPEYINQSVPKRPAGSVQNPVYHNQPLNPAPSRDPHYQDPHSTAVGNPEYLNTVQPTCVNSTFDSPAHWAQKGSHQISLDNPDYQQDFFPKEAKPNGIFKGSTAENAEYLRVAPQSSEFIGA
T1 sequence (P04626 23-1255): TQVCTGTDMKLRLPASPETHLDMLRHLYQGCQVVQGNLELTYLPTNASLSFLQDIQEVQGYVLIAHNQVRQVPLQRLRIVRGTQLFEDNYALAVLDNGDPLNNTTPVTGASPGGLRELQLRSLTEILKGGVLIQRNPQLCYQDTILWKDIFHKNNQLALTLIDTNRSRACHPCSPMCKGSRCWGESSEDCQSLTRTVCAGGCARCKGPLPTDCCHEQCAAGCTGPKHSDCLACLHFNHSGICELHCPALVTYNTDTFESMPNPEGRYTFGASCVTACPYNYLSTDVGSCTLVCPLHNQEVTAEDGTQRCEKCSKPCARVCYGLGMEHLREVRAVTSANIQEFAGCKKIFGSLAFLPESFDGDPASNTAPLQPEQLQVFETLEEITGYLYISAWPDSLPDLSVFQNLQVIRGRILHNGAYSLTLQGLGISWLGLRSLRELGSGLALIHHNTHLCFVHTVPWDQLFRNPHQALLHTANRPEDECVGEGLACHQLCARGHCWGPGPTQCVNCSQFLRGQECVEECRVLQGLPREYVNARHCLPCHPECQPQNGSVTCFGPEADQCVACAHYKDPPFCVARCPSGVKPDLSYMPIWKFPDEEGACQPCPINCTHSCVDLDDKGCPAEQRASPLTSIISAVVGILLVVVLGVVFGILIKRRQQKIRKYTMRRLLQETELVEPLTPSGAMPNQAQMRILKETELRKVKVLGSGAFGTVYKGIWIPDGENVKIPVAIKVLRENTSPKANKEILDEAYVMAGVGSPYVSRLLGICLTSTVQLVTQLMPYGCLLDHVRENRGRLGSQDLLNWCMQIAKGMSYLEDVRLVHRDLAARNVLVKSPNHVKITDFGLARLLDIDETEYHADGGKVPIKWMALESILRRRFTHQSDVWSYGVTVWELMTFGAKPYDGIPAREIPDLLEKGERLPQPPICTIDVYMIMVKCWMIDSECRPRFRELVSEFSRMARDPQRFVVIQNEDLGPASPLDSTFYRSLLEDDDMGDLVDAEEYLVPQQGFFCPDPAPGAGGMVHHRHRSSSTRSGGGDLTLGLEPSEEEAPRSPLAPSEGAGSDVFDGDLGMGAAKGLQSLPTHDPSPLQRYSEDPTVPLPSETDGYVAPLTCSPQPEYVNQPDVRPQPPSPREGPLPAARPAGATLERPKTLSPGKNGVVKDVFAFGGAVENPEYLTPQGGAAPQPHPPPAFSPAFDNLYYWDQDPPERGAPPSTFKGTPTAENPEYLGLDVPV

Compound	IC50 (HT-29 tumor cells) [nM]	IC50 (ErbB2) [nM]	IC50 (HN5 tumor cells) [nM]	IC50 (Colo205 tumor cells) [nM]	IC50 (EGFR) [nM]	IC50 (SK-MEL-3 tumor cells) [nM]	IC50 (SK-MEL-28 tumor cells) [nM]	IC50 (BT474 tumor cells) [nM]	IC50 (A375P F11s tumor cells) [nM]
CN1CCc2ccc(Nc3nccc(-c4sc(N)nc4-c4cccc(NC(=O)c5c(F)cccc5F)c4)n3)cc2C1 [Example 10, trifluoroacetate]	100 to 1000	< 100	< 100	100 to 1000	< 100	100 to 1000	100 to 1000	< 100	100 to 1000
COc1ccc(Nc2nccc(-c3sc(N)nc3-c3cccc(NC(=O)c4c(F)cccc4F)c3)n2)cc1N1CCN(C)CC1 [Example 11, N-{3-[2-Amino-5-(2-{[4-(methyloxy)-3-(4-methyl-1-piperazinyl)phenyl]amino}-4-pyrimidinyl)-1,3-thiazol-4-yl]phenyl}-2,6-difluorobenzamide trifluoroacetate]	100 to 1000	< 100	< 100	100 to 1000	< 100	100 to 1000	< 100	< 100	100 to 1000
CN(C)C1Cc2ccc(Nc3nccc(-c4sc(N)nc4-c4cccc(NC(=O)c5c(F)cccc5F)c4)n3)cc2C1 (stereo not drawn) [Example 12, N-{3-[2-Amino-5-(2-{[2-(dimethylamino)-2,3-dihydro-1H-indeN-5-yl]amino}-4-pyrimidinyl)-1,3-thiazol-4-yl]phenyl}-2,6-difluorobenzamide]	100 to 1000	< 100	< 100	100 to 1000	< 100	100 to 1000	> 1000	< 100	100 to 1000
Nc1nc(-c2cccc(NC(=O)c3c(F)cccc3F)c2)c(-c2ccnc(Nc3cccc(CN4CCCC4)c3)n2)s1 [Example 13, N-{3-[2-Amino-5-(2-{[3-(1-pyrrolidinylmethyl)phenyl]amino}-4-pyrimidinyl)-1,3-thiazol-4-yl]phenyl}-2,6-difluorobenzamide]	100 to 1000	< 100	< 100	100 to 1000	< 100	100 to 1000	> 1000	< 100	100 to 1000
CCN(CC)CCOc1cccc(Nc2nccc(-c3sc(N)nc3-c3cccc(NC(=O)c4c(F)cccc4F)c3)n2)c1 [Example 17, N-(3-{2-Amino-5-[2-({3-[2-(diethylamino)ethoxy]phenyl}amino)pyrimidiN-4-yl]-1,3-thiazol-4-yl}phenyl)-2,6-difluorobenzamide]	100 to 1000	< 100	< 100	100 to 1000	< 100	> 1000	> 1000	< 100	100 to 1000
CNc1nc(-c2cccc(NC(=O)c3c(F)cccc3F)c2)c(-c2ccnc(Nc3cccc(CN4CCCC4)c3)n2)s1 [Example 23, 2,6-Difluoro-N-{3-[2-(methylamino)-5-(2-{[3-(1-pyrrolidinylmethyl)phenyl]amino}-4-pyrimidinyl)-1,3-thiazol-4-yl]phenyl}benzamide]	100 to 1000	< 100	< 100	100 to 1000	< 100	100 to 1000	> 1000	< 100	100 to 1000

Further lines, results first:

IC50 (HT-29 tumor cells) [nM]	IC50 (ErbB2) [nM]	IC50 (HN5 tumor cells) [nM]	IC50 (Colo205 tumor cells) [nM]	IC50 (EGFR) [nM]	IC50 (SK-MEL-3 tumor cells) [nM]	IC50 (SK-MEL-28 tumor cells) [nM]	IC50 (BT474 tumor cells) [nM]	IC50 (A375P F11s tumor cells) [nM]	Compound
100 to 1000	< 100	< 100	< 100	< 100	100 to 1000	100 to 1000	< 100	100 to 1000	COc1ccc(Nc2nccc(-c3sc(N)nc3-c3cccc(NC(=O)c4c(F)cccc4F)c3)n2)cc1OCCN(C)C [Example 2]
100 to 1000	< 100	100 to 1000	100 to 1000	< 100	100 to 1000	100 to 1000	100 to 1000	100 to 1000	CN(C)CCOc1ccc(Nc2nccc(-c3sc(NCCCN4CCOCC4)nc3-c3cccc(NC(=O)c4c(F)cccc4F)c3)n2)cc1Cl [Example 4, N-[3-(5-{2-[(3-Chloro-4-{[2-(dimethylamino)ethyl]oxy}phenyl)-amino]-4-pyrimidinyl}-2-{[3-(4-morpholinyl)propyl]amino}-1,3-thiazol-44)phenyl]-2,6-difluorobenzamide]
100 to 1000	< 100	< 100	100 to 1000	< 100	100 to 1000	100 to 1000	< 100	100 to 1000	CN(C)CCOc1ccc(Nc2nccc(-c3sc(N)nc3-c3cccc(NC(=O)c4c(F)cccc4F)c3)n2)cc1Cl [Example 5, N-(3-{2-Amino-5-[2-({3-chloro-4-[2-(dimethylamino)ethoxy]-phenyl}amino)pyrimidin-4-yl]-1,3-thiazol-4-yl}phenyl)-2,6-difluorobenzamide-formic acid]
100 to 1000	< 100	< 100	100 to 1000	< 100	100 to 1000	100 to 1000	< 100	100 to 1000	CN(C)CCOc1cccc(Nc2nccc(-c3sc(N)nc3-c3cccc(NC(=O)c4c(F)cccc4F)c3)n2)c1 [Example 22, N-[3-(2-Amino-5-{2-[(3-{[2-(dimethylamino)ethyl]oxy}phenyl)amino]-4-pyrimidinyl}-1,3-thiazol-4-yl)phenyl]-2,6-difluorobenzamide]
100 to 1000	< 100		100 to 1000	< 100	> 1000	> 1000	100 to 1000	100 to 1000	CN(C)CCOc1cccc(Nc2nccc(-c3sc(N4CCCCC4)nc3-c3cccc(NC(=O)c4c(F)cccc4F)c3)n2)c1 [Example 74, N-{3-[5-{2-[(3-{[2-(Dimethylamino)ethyl]oxy}phenyl)amino]-4-pyrimidinyl}-2-(1-piperidinyl)-1,3-thiazol-4-yl]phenyl}-2,6-difluorobenzamide]
> 1000		100 to 1000	> 1000		> 1000	> 1000	100 to 1000	> 1000	CCc1nc(-c2cccc(NC(=O)c3c(F)cccc3F)c2)c(-c2ccnc(Nc3ccc(N4CCOCC4)nc3)n2)s1 [Example 118, N-{3-[2-Ethyl-5-(2-{[6-(4-morpholinyl)-3-pyridinyl]amino}-4-pyrimidinyl)-1,3-thiazol-4-yl]phenyl}-2,6-difluorobenzamide trifluoroacetate]
